Patent US7109193B2, “Tricyclic diazepines tocolytic oxytocin receptor antagonists” (Wyeth, priority 2001, dated 2006)
pIC50: −log10 of the molar value.

Biological target: T1, human oxytocin receptor (Homo sapiens, UniProt P30559)
T1 construct: host or cells: CHO cells (pcDNA3.1 vector)
T1 sequence (P30559 1-389): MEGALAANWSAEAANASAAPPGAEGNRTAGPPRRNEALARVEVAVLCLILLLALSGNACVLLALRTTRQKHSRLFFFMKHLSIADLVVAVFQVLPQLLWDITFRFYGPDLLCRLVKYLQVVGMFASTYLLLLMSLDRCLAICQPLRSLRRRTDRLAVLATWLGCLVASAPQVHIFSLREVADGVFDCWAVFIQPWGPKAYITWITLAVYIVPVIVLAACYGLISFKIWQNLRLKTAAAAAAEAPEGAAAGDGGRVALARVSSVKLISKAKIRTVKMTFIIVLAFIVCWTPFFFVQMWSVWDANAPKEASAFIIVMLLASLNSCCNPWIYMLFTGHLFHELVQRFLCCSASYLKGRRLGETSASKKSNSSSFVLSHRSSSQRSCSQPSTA
Assay: Oxytocin binding in Chinese Hamster Ovary cell membranes expressing human oxytocin receptors
Conditions: 100 nM, CHO cell membranes, [3H]oxytocin, values without parentheses, read-out: OT % inhibition @ 100% nM

Point of comparison: `CN(C)CCN(C)C(=O)c1ccc2n1Cc1ccccc1N(C(=O)c1ccc(-c3cccc4ccccc34)cc1Cl)C2` [Example 96, 10-[2-Chloro-4-(1-naphthyl)benzoyl]-N-[2-(dimethylamino)ethyl]-N-methyl-10,11-dihydro-5H-pyrrolo[2,1-c][1,4]benzodiazepine-3-carboxamide], inhibition at 0.1 µM 54%. Against it:
- COc1ccccc1-c1ccc(C(=O)N2Cc3ccc(C(=O)N(C)CCN(C)C)n3Cc3ccccc32)cc1C [Example 88, N-[2-(Dimethylamino)ethyl]-10-[(2′-methoxy-2-methyl[1,1′-biphenyl]-4-yl)carbonyl]-N-methyl-10,11-dihydro-5H-pyrrolo[2,1-c][1,4]benzodiazepine-3-carboxamide] — higher, 98%
- COc1cccc(-c2ccc(C(=O)N3Cc4ccc(C(=O)N(C)CCN(C)C)n4Cc4ccccc43)cc2C)c1 [Example 89, N-[2-(Dimethylamino)ethyl]-10-[(3′-methoxy-2-methyl[1,1′-biphenyl]-4-yl)carbonyl]-N-methyl-10,11-dihydro-5H-pyrrolo[2,1-c][1,4]benzodiazepine-3-carboxamide] — higher, 97%
- COc1ccccc1-c1ccc(C(=O)N2Cc3ccc(C(=O)N(C)CCN(C)C)n3Cc3ccccc32)cc1 [Example 90, N-[2-(Dimethylamino)ethyl]-10-[(2′-methoxy[1,1′-biphenyl]-4-yl)carbonyl]-N-methyl-10,11-dihydro-5H-pyrrolo[2,1-c][1,4]benzodiazepine-3-carboxamide] — higher, 100%
- Cc1ccccc1-c1ccc(C(=O)N2Cc3ccc(C(=O)N(C)CCN(C)C)n3Cc3ccccc32)cc1 [Example 91, N-[2-(Dimethylamino)ethyl]-N-methyl-10-[(2′-methyl[1,1′-biphenyl]-4-yl)carbonyl]-10,11-dihydro-5H-pyrrolo[2,1-c][1,4]benzodiazepine-3-carboxamide] — higher, 97%
- COc1cc(C(=O)N2Cc3ccc(C(=O)N(C)CCN(C)C)n3Cc3ccccc32)ccc1-c1ccccc1C [Example 92, N-[2-(Dimethylamino)ethyl]-10-[(2-methoxy-2′-methyl[1,1′-biphenyl]-4-yl)carbonyl]-N-methyl-10,11-dihydro-5H-pyrrolo[2,1-c][1,4]benzodiazepine-3-carboxamide] — higher, 99%
- COc1cc(C(=O)N2Cc3ccc(C(=O)N(C)CCN(C)C)n3Cc3ccccc32)ccc1-c1cccc2ccccc12 [Example 93, N-[2-(Dimethylamino)ethyl]-10-[3-methoxy-4-(1-naphthyl)benzoyl]-N-methyl-10,11-dihydro-5H-pyrrolo[2,1-c][1,4]benzodiazepine-3-carboxamide] — higher, 90%
- COc1ccccc1-c1ccc(C(=O)N2Cc3ccc(C(=O)N(C)CCN(C)C)n3Cc3ccccc32)cc1OC [Example 94, 10-[(2,2′-Dimethoxy[1,1′-biphenyl]-4-yl)carbonyl]-N-[2-(dimethylamino)ethyl]-N-methyl-10,11-dihydro-5H-pyrrolo[2,1-c][1,4]benzodiazepine-3-carboxamide] — higher, 94%
- COc1cccc(-c2ccc(C(=O)N3Cc4ccc(C(=O)N(C)CCN(C)C)n4Cc4ccccc43)cc2OC)c1 [Example 95, 10-[(2,3′-Dimethoxy[1,1′-biphenyl]-4-yl)carbonyl]-N-[2-(dimethylamino)ethyl]-N-methyl-10,11-dihydro-5H-pyrrolo[2,1-c][1,4]benzodiazepine-3-carboxamide] — higher, 97%
- COc1ccccc1-c1ccc(C(=O)N2Cc3ccc(C(=O)N(C)CCCN(C)C)n3Cc3ccccc32)cc1C [Example 100, N-[3-(Dimethylamino)propyl]-10-[(2′-methoxy-2-methyl[1,1′-biphenyl]-4-yl)carbonyl]-N-methyl-10,11-dihydro-5H-pyrrolo[2,1-c][1,4]benzodiazepine-3-carboxamide] — higher, 98%
- Cc1ccccc1-c1ccc(C(=O)N2Cc3ccc(C(=O)N(C)CCCN(C)C)n3Cc3ccccc32)cc1C [Example 101, N-[3-(Dimethylamino)propyl]-10-[(2,2′-dimethyl[1,1′-biphenyl]-4-yl)carbonyl]-N-methyl-10,11-dihydro-5H-pyrrolo[2,1-c][1,4]benzodiazepine-3-carboxamide] — higher, 100%
- COc1cccc(-c2ccc(C(=O)N3Cc4ccc(C(=O)N(C)CCCN(C)C)n4Cc4ccccc43)cc2C)c1 [Example 102, N-[3-(Dimethylamino)propyl]-10-[(3′-methoxy-2-methyl[1,1′-biphenyl]-4-yl)carbonyl]-N-methyl-10,11-dihydro-5H-pyrrolo[2,1-c][1,4]benzodiazepine-3-carboxamide] — higher, 95%
- COc1ccccc1-c1ccc(C(=O)N2Cc3ccc(C(=O)N(C)CCCN(C)C)n3Cc3ccccc32)cc1 [Example 103, N-[3-(Dimethylamino)propyl]-10-[(2′-methoxy[1,1′-biphenyl]-4-yl)carbonyl]-N-methyl-10,11-dihydro-5H-pyrrolo[2,1-c][1,4]benzodiazepine-3-carboxamide] — higher, 98%
- Cc1ccccc1-c1ccc(C(=O)N2Cc3ccc(C(=O)N(C)CCCN(C)C)n3Cc3ccccc32)cc1 [Example 104, N-[3-(Dimethylamino)propyl]-N-methyl-10-[(2′-methyl[1,1′-biphenyl]-4-yl)carbonyl]-10,11-dihydro-5H-pyrrolo[2,1-c][1,4]benzodiazepine-3-carboxamide] — higher, 96%
- COc1cc(C(=O)N2Cc3ccc(C(=O)N(C)CCCN(C)C)n3Cc3ccccc32)ccc1-c1ccccc1C [Example 105, N-[3-(Dimethylamino)propyl]-10-[(2-methoxy-2′-methyl[1,1′-biphenyl]-4-yl)carbonyl]-N-methyl-10,11-dihydro-5H-pyrrolo[2,1-c][1,4]benzodiazepine-3-carboxamide] — higher, 97%
- COc1cc(C(=O)N2Cc3ccc(C(=O)N(C)CCCN(C)C)n3Cc3ccccc32)ccc1-c1cccc2ccccc12 [Example 106, N-[3-(Dimethylamino)propyl]-10-[3-methoxy-4-(1-naphthyl)benzoyl]-N-methyl-10,11-dihydro-5H-pyrrolo[2,1-c][1,4]benzodiazepine-3-carboxamide] — higher, 88%

Same assay, conditions: CHO cell membranes, [3H]oxytocin, values in parentheses, read-out: OT (IC50)

Point of comparison: `COc1cc(-c2ccccc2C)c(Cl)cc1C(=O)N1Cc2ccc(C(=O)N3CCC(N4CCCCC4)CC3)n2Cc2ccccc21` [Example 110, {10-[(6-Chloro-3-methoxy-2′-methyl[1,1′-biphenyl]-4-yl)carbonyl]-10,11-dihydro-5H-pyrrolo[2,1-c][1,4]benzodiazepin-3-yl}[4-(1-piperidinyl)-1-piperidinyl]methanone], pIC50 8.10. Against it:
- COc1cc(-c2ccccc2C)c(Cl)cc1C(=O)N1Cc2ccc(C(=O)N(C)CCN(C)C)n2Cc2ccccc21 [Example 86, 10-[(6-Chloro-3-methoxy-2′-methyl[1,1′-biphenyl]-4-yl)carbonyl]-N-[2-(dimethylamino)ethyl]-N-methyl-10,11-dihydro-5H-pyrrolo[2,1-c][1,4]benzodiazepine-3-carboxamide] — 0.54 log units higher, 8.64
- COc1cccc(-c2cc(OC)c(C(=O)N3Cc4ccc(C(=O)N(C)CCN(C)C)n4Cc4ccccc43)cc2Cl)c1 [Example 87, 10-[(6-Chloro-3,3′-dimethoxy[1,1′-biphenyl]-4-yl)carbonyl]-N-[2-(dimethylamino)ethyl]-N-methyl-10,11-dihydro-5H-pyrrolo[2,1-c][1,4]benzodiazepine-3-carboxamide] — 0.23 log units higher, 8.33
- Cc1cc(C(=O)N2Cc3ccc(C(=O)N(C)CCCN(C)C)n3Cc3ccccc32)ccc1-c1ccccc1C(F)(F)F [Example 97, N-[3-(Dimethylamino)propyl]-N-methyl-10-{[2-methyl-2′-(trifluoromethyl)[1,1′-biphenyl]-4-yl]carbonyl}-10,11-dihydro-5H-pyrrolo[2,1-c][1,4]benzodiazepine-3-carboxamide] — within 0.2 log units, 8.15
- COc1cc(-c2ccccc2C)c(Cl)cc1C(=O)N1Cc2ccc(C(=O)N(C)CCCN(C)C)n2Cc2ccccc21 [Example 98, 10-[(6-Chloro-3-methoxy-2′-methyl[1,1′-biphenyl]-4-yl)carbonyl]-N-[3-(dimethylamino)propyl]-N-methyl-10,11-dihydro-5H-pyrrolo[2,1-c][1,4]benzodiazepine-3-carboxamide] — 0.51 log units higher, 8.61
- COc1cccc(-c2cc(OC)c(C(=O)N3Cc4ccc(C(=O)N(C)CCCN(C)C)n4Cc4ccccc43)cc2Cl)c1 [Example 99, 10-[(6-Chloro-3,3′-dimethoxy[1,1′-biphenyl]-4-yl)carbonyl]-N-[3-(dimethylamino)propyl]-N-methyl-10,11-dihydro-5H-pyrrolo[2,1-c][1,4]benzodiazepine-3-carboxamide] — 0.59 log units higher, 8.69
- COc1ccccc1-c1ccc(C(=O)N2Cc3ccc(C(=O)N4CCC(N5CCCCC5)CC4)n3Cc3ccccc32)cc1 [Example 111, {10-[(2′-Methoxy[1,1′-biphenyl]-4-yl)carbonyl]-10,11-dihydro-5H-pyrrolo[2,1-c][1,4]benzodiazepin-3-yl}[4-(1-piperidinyl)-1-piperidinyl]methanone] — within 0.2 log units, 8.17
- COc1cc(-c2ccccc2C)c(Cl)cc1C(=O)N1Cc2ccc(C(=O)N3CCC(N4CCCC4)CC3)n2Cc2ccccc21 [Example 136, {10-[(6-Chloro-3-methoxy-2′-methyl[1,1′-biphenyl]-4-yl)carbonyl]-10,11-dihydro-5H-pyrrolo[2,1-c][1,4]benzodiazepin-3-yl}[4-(1-pyrrolidinyl)-1-piperidinyl]methanone] — within 0.2 log units, 8.14
